Measurements published in US10533992B2, “Method for screening for sunlight protection functional material and method for evaluating sunlight protection effect” (AMOREPACIFIC CORPORATION, priority 2015, dated 2020).

Experiments:
[1] = tested on: HBD-1, HBD-2, HBD-3, LL-37, psoriasin, dermcidin, and RNase 7; experiment: AMP expression (Q-RT-PCR) in keratinocytes treated with Poly I:C and the scavengers PTIO or NAC, with or without blue/violet light; format: cell-based, human
Method: (§1) First, according to a commercially secured and recommended method, the human epidermal neonatal keratinocytes used in the present invention were purchased from Lonza, Inc. (Walkersville, Md., US), subcultured, and then cultured in a CO2 incubator under the conditions of 37° C. and 5% CO2. The culture medium was prepared according to the guideline provided by Lonza, Inc. KGM-2 Bullet kit: BPE (Bovine pituitary extract) 2 ml, hEGF (human epidermal growth factor) 0.5 ml, insulin 0.5 ml, hydrocortisone 0.5 ml, transferrin 0.5 ml, epinephrine 0.5 ml, and gentamycin sulfate+amphotericin-B(GA-1000) 0.5 ml were added to 500 ml of KBM-2 (Clonetics CC-3103) medium.
(§2) Subsequently, blue/violet light of a wavelength from 400 to 500 nm was radiated to the medium in which human epidermal neonatal keratinocytes is cultured (10 J/cm^2). […]
(§3) Then, the separated RNA was once again purified by using an RNA kit (QIAGEN RNeasy kt, QIAGEN, Valencia, Calif.), and then the quality of the RNA was examined by using Agilent 2100 BioAnalyzer (Agilent Technologies, Santa Clara, Calif., USA). The Superscript Reverse Transcriptase (RT) kit (Invitrogen, Carlsbad, Calif.) was used to synthesize cDNA from the RNA, and the cDNA was quantitatively analyzed through a real time-reverse transcription polymerase chain reaction (Q-RT-PCR). […]

[2] = tested on: HBD-1, HBD-2, HBD-3, LL-37, psoriasin, dermcidin, and RNase7; experiment: AMP expression (Q-RT-PCR) in keratinocytes treated with Poly I:C and flagellin, with or without blue/violet light; format: cell-based; conditions: human epidermal neonatal keratinocytes; Poly I:C and flagellin treatment; FIGS. 3a to 3g
Method: as §1, §2, §3

Molecule | expression level of the AMPs on blue/violet light radiation ([1]; Poly I:C treated keratinocytes, blue/violet light 10 J/cm^2, scavenger treated group) | expression level of HBD-1, HBD-2, HBD-3, LL-37, psoriasin, dermcidin, and RNase7 ([1]; human epidermal neonatal keratinocytes, Poly I:C treatment, FIGS. 4a to 4g) | expression level of HBD-1, HBD-2, HBD-3, LL-37, psoriasin, dermcidin, and RNase7 [2]
CC1(C)N([O])C(c2ccc(C(=O)[O-])cc2)=[N+]([O-])C1(C)C.[K+] [PTIO, 2-(4-Carboxyphenyl)-4,4,5,5-tetramethylimidazoline-1-oxyl-3-oxide potassium salt] | not reduced | – | –
Poly I:C | – | increased | increased
flagellin | – | – | increased
